Experimental findings from patent US20120258038A1, “USES OF APOPTOTIC CELL-TARGETING PEPTIDES, LABEL SUBSTANCES AND LIPOSOMES CONTAINING A THERAPEUTIC AGENT FOR PREVENTING, TREATING OR THERAPEUTICALLY DIAGNOSING APOPTOSIS-RELATED DISEASES” (Kyungpook National University Industry-Academic Cooperation …, priority 2009, published 2012) are described below.

Assay [1] relates to etoposide-treated apoptotic cells (A549, H460, HeLa, L132, RAW). The assay is described as follows: Microscopic observation of binding of the peptide to apoptotic cells. The assay is classed as cell-based. The conditions noted are these: for labeling of etoposide-treated apoptotic cells: etoposide 50 μM; for labeling of etoposide-treated apoptotic cells / labeling of normal cells not treated with etoposide: fluorescence microscopy, fluorescein-labeled peptide 10 μM, alexa 594-labeled annexin V; for labeling of normal cells not treated with etoposide: 4° C., 1 hour. As for the experimental part: Cells were cultured in a chamber slide (Nalgen Nunc), and treated with etoposide (Sigma) at a concentration of 50 μM for a given period of time to induce apoptosis (A549 and HeLa cells: for 15 hours, H460 cells: 24 hours, L132 cells: 3 hours, and RAW cells: 6 hours). The cells were cultured in RMPI-1640 medium (A549 and H460 cells) or DMEM medium (HeLa, L132 and RAW cells) containing antibiotics (penicillin and streptomycin) and 10% FBS. Meanwhile, all the cells were subcultured every 3 or 4 days. The apoptosis-induced apoptotic cells were washed with PBS, and blocked with 1% BSA at 37° C. for 30 minutes. Then, the cells were reacted with 10 μM of the peptide labeled with fluorescein, at 4° C. for 1 hour. After being washed, the cells were reacted with an annexin V reaction buffer solution containing alexa 594 (fluorescent reagent)-labeled annexin V (Molecular Probes) at room temperature for 15 minutes. The cells were washed with PBS, and then fixed with 4% paraformaldehyde for 5 minutes. Then, after counterstaining using the nuclear stain 4′,6-diamidino-2-phenylindole (DAPI), followed by treatment with a mounting solution (Molecular Probes), images of the cells were obtained under a fluorescence microscope (Zeiss).

In assay [2] the test system is A549 cells. Put plainly: FACS analysis of binding to apoptotic cells. The assay is classed as cell-based, human. The conditions noted are these: for percentage of cells bound/stained, early stage of apoptosis (fraction Q4) / percentage of cells bound/stained, later stage of apoptosis (fraction Q2): A549 cells treated with 50 μM etoposide for 15 hours, PI co-staining. As for the experimental part: As another way of confirming the binding of the inventive peptide to apoptotic cells, apoptotic cells were treated with the inventive peptide labeled with fluorescein, and the binding was confirmed through FACS analysis. First, apoptosis was induced by treating A549 cells with 50 μM etoposide for 6 to 15 hours. The apoptotic cells or normal cells were reacted with the inventive ApoPep-1 peptide(5 μM) or a control peptide at the same concentration, labeled with fluorescein, at 4° C. for 1 hour. Meanwhile, the cells were reacted with fluorescein-labeled annexin V at room temperature for 15 minutes. After simultaneously staining the cells with propodium iodide (PI), followed by washing with PBS, FACS analysis was performed using a FACS instrument (Becton Dickinson).
(Flow cytometry measures light scatter and fluorescence of single cells or particles in a stream.)

The subject of assay [3] is apoptotic A549 cells. The assay is described as follows: Competitive inhibition of binding to apoptotic cells by annexin V pre-treatment. The assay is classed as cell-based, human. The protocol:
In order to further investigate the binding properties of the inventive peptide (ApoPep-1) to apoptotic cells, competitive inhibition by annexin V was measured. For this, first, apoptotic A549 cells were pretreated with annexin V, not labeled with fluorescence, at concentrations of 0, 200 and 1000 μM. Then, after the cells were reacted with fluorescence-labeled annexin V under the same condition as described in Example <2-1>, the binding of the cells was observed under a fluorescence microscope.
Meanwhile, apoptotic A549 cells were pre-treated with annexin V, not labeled with fluorescence, at a concentration of 1000 μM. Then, after the cells were reacted with fluorescence-labeled peptide under the same condition as described in Example <2-1>, the binding of the cells was observed under a fluorescence microscope.

Take “CQRPPR (Apoptotic cell-targeting peptide, ApoPep-1)”: in assay [1], the “labeling of etoposide-treated apoptotic cells” value is “labeling was observed” and the “labeling of normal cells not treated with etoposide” value is given as “no labeling was observed”. For the same molecule, the “location of binding compared with annexin V (merged images)” value in assay [1] (etoposide-treated apoptotic cells) was “at the same locations”. In addition, the “binding to normal cells” value in assay [2] (A549 cells not treated with etoposide, 5 μM, fluorescein-labeled) is “almost nonexistent”. Moreover, in assay [2], the “percentage of cells bound/stained, early stage of apoptosis (fraction Q4)” value is reported as 90.3% and the “percentage of cells bound/stained, later stage of apoptosis (fraction Q2)” value is 7.2%. Moreover, in assay [3] (annexin V not labeled with fluorescence, 1000 μM), the “binding of the peptide after pre-treatment with annexin V” value was “not inhibited”.

B1: annexin V: protein having a molecular weight of 36 kDa, binds to phosphatidylserine with strong affinity (protein, UniProt P08758 2-320, looked up)
Annexin A5: AQVLRGTVTDFPGFDERADAETLRKAMKGLGTDEESILTLLTSRSNAQRQEISAAFKTLFGRDLLDDLKSELTGKFEKLIVALMKPSRLYDAYELKHALKGAGTNEKVLTEIIASRTPEELRAIKQVYEEEYGSSLEDDVVGDTSGYYQRMLVVLLQANRDPDAGIDEAQVEQDAQALFQAGELKWGTDEEKFITIFGTRSVSHLRKVFDKYMTISGFQIEETIDRETSGNLEQLLLAVVKSIRSIPAYLAETLYYAMKGAGTDDHTLIRVMVSRSEIDLFNIRKEFRKNFATSLYSMIKGDTSGDYKKALLLLCGEDD
B1: in assay [1], the “labeling of etoposide-treated apoptotic cells” value is “labeling was observed” and the “labeling of normal cells not treated with etoposide” value is “no labeling was observed”. In assay [2], the “percentage of cells bound/stained, early stage of apoptosis (fraction Q4)” value was 64.3% and the “percentage of cells bound/stained, later stage of apoptosis (fraction Q2)” value amounted to 9.4%. Moreover, in assay [3] (pre-treatment 0, 200 and 1000 μM, high concentration), the “fluorescence of fluorescence-labeled annexin V after pre-treatment with annexin V not labeled with fluorescence” value was “significantly decreased”.
